Results taken from patent publication US9999222B2, “Herbicidal combination comprising azines” (BASF SE, priority 2014, dated 2018).
Where two headings read alike, the source gives them in different places.

Assays:
Assay in all cases: Greenhouse test, pre-emergence treatment
ALOMY = assay type: in vivo, Alopecurus myosuroides; settings: Alopecurus myosuroides, pre-emergence, 480 h, pre-emergence, read-out: observed % activity 20 DAT
Summary of the method: (§1)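 Seeds were sown in loamy sand with about 3.0% humus, and compounds in water were sprayed immediately after sowing, alone or as combinations formulated as 10% emulsion concentrates. Plants grew under hoods until rooted, at 10-25 °C or 20-35 °C by species, for 2 to 4 weeks. Damage was scored 0-100 (100 = no emergence or complete destruction), and Colby expected values were E=X+Y−(X·Y/100).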

ECHCG = assay type: in vivo, Echinocloa crus-galli; settings: Echinochloa crus-galli, 480 h, use rate 31.25 g ai/ha, read-out: observed % activity 20 DAT
Summary of the method: as §1

POLCO = assay type: in vivo, Polygonum convolvulus; settings: Fallopia convolvulus, 480 h, pre-emergence, read-out: observed % activity 20 DAT
Summary of the method: as §1

SETFA = assay type: in vivo, Setaria faberi
Summary of the method: as §1

AVEFA = assay type: in vivo, Avena fatua; settings: pre-emergence
Description: (§2) The culture containers used were plastic flowerpots containing loamy sand with approximately 3.0% of humus as the substrate. The seeds of the test plants were sown separately for each species.
(§3) For the pre-emergence treatment, the active ingredients, which had been suspended or emulsified in water, were applied directly after sowing by means of finely distributing nozzles. The containers were irrigated gently to promote germination and growth and subsequently covered with transparent plastic hoods until the plants had rooted. This cover caused uniform germination of the test plants, unless this had been impaired by the active ingredients.
(§4) Depending on the species, the plants were kept at 10-25° C. or 20-35° C., respectively.
(§5) The test period extended over 2 to 4 weeks. During this time, the plants were tended, and their response to the individual treatments was evaluated.
(§6) Evaluation was carried out using a scale from 0 to 100. 100 means no emergence of the plants, or complete destruction of at least the aerial moieties, and 0 means no damage, or normal course of growth. A moderate herbicidal activity is given at values of at least 60, a good herbicidal activity is given at values of at least 70, and a very good herbicidal activity is given at values of at least 85.
(§7) The respective stated components a and b, and if appropriate, c were formulated as a 10% by weight strength emulsion concentrate and, with addition of the amount of solvent system, introduced into the spray liquor used for applying the active compound.
(§8) In the examples, the solvent used was water.
(§9) In the examples below, using the method of S. R. Colby (1967) “Calculating synergistic and antagonistic responses of herbicide combinations”, Weeds 15, p. 22ff., the value E, which is expected if the activity of the individual active compounds is only additive, was calculated. E=X+Y−(X·Y/100) where • X=percent activity using active compound a at an application rate A; • Y=percent activity using active compound b at an application rate B; • E=expected activity (in %) by a+b at application rates A+B.
(§10) If the value found experimentally is higher than the value E calculated according to Colby, a synergistic effect is present.

BRADC = assay type: in vivo, Brachiaria decumbens; settings: Urochloa decumbens, pre-emergence, 480 h, pre-emergence, read-out: observed % activity 20 DAT
Description: as §2, §3, §4, §5, §6, §7, §8, §9, §10

EPHHL = assay type: in vivo, Euphorbia heterophylla; settings: Euphorbia heterophylla, pre-emergence, 480 h, pre-emergence, 250 g ai/ha; read-out: observed % activity 20 DAT
Summary of the method: as §1

GERPU = assay type: in vivo, Geranium pusillum; settings: Geranium pusillum, pre-emergence, 480 h, pre-emergence, read-out: observed % activity 20 DAT
Summary of the method: as §1

KCHSC = assay type: in vivo, Kochia scoparia; settings: Bassia scoparia, 480 h, pre-emergence, read-out: observed % activity 20 DAT
Summary of the method: as §1

LOLMU = assay type: in vivo, Lolium multiflorum; settings: Lolium multiflorum, pre-emergence, 480 h, pre-emergence, read-out: observed % activity 20 DAT
Summary of the method: as §1

PHACA = assay type: in vivo, Phalaris canariensis; settings: pre-emergence, pre-emergence
Summary of the method: as §1

COCC(C)N(C(=O)CCl)c1c(C)csc1C (stereo not shown) [Dimethenamid, dimethenamid]
pest or weed control at 125 g/ha (ALOMY; 125 g ai/ha): 25% | pest or weed control at 500 g/ha (ALOMY; 500 g ai/ha): 75% | pest or weed control at 62.5 g/ha (ALOMY; use rate 62.5 g ai/ha, 20 DAT): 0% | inhibition at 62.5 g/ha (ALOMY; use rate 62.5 g ai/ha): 0% | inhibition at 125 g/ha (ALOMY; use rate 125 g ai/ha): 35% | pest or weed control at 31.25 g/ha (ECHCG; 20 DAT): 98% | inhibition at 31.25 g/ha (ECHCG): 98% | pest or weed control at 31.25 g/ha (POLCO; use rate 31.25 g ai/ha, 20 DAT): 0% | pest or weed control at 62.5 g/ha (POLCO; use rate 62.5 g ai/ha, 20 DAT): 0% | pest or weed control at 125 g/ha (POLCO; use rate 125 g ai/ha, 20 DAT): 0% | inhibition at 31.25 g/ha (POLCO; use rate 31.25 g ai/ha): 0% | inhibition at 62.5 g/ha (POLCO; use rate 62.5 g ai/ha): 0% | inhibition at 125 g/ha (POLCO; use rate 125 g ai/ha): 0% | inhibition at 15.625 g/ha (SETFA; Setaria faberi, 480 h, use rate 15.625 g ai/ha, read-out: observed % activity 20 DAT): 85% | inhibition at 31.25 g/ha (SETFA; Setaria faberi, 480 h, use rate 31.25 g ai/ha, read-out: observed % activity 20 DAT): 98% | observed % activity 20 DAT (SETFA; use rate 31.25 g ai/ha, 20 DAT): 98% | observed % activity 20 DAT (AVEFA; 55 g ai/ha): 95% | observed % activity 20 DAT (AVEFA; 250 g ai/ha): 85% | pest or weed control at 125 g/ha (BRADC; 125 g ai/ha): 98% | pest or weed control at 250 g/ha (BRADC; 250 g ai/ha): 98% | pest or weed control at 500 g/ha (BRADC; 500 g ai/ha): 98% | pest or weed control at 250 g/ha (EPHHL): 25% | pest or weed control at 250 g/ha (GERPU; 250 g ai/ha): 98% | inhibition at 15.625 g/ha (GERPU; use rate 15.625 g ai/ha): 50% | inhibition at 31.25 g/ha (GERPU; use rate 31.25 g ai/ha): 70% | pest or weed control at 62.5 g/ha (GERPU; use rate 62.5 g ai/ha, 20 DAT): 85% | inhibition at 62.5 g/ha (GERPU; use rate 62.5 g ai/ha): 85% | pest or weed control at 125 g/ha (GERPU; use rate 125 g ai/ha, 20 DAT): 95% | pest or weed control at 250 g/ha (KCHSC; 250 g ai/ha): 75% | pest or weed control at 31.25 g/ha (KCHSC; use rate 31.25 g ai/ha, 20 DAT): 0% | pest or weed control at 62.5 g/ha (KCHSC; use rate 62.5 g ai/ha, 20 DAT): 0% | pest or weed control at 125 g/ha (KCHSC; use rate 125 g ai/ha, 20 DAT): 0% | inhibition at 31.25 g/ha (KCHSC; use rate 31.25 g ai/ha): 0% | inhibition at 62.5 g/ha (KCHSC; use rate 62.5 g ai/ha): 0% | inhibition at 125 g/ha (KCHSC; use rate 125 g ai/ha): 0% | pest or weed control at 125 g/ha (LOLMU; 125 g ai/ha): 85% | pest or weed control at 250 g/ha (LOLMU; 250 g ai/ha): 98% | pest or weed control at 15.625 g/ha (LOLMU; use rate 15.625 g ai/ha, 20 DAT): 0% | inhibition at 31.25 g/ha (LOLMU; use rate 31.25 g ai/ha): 55% | pest or weed control at 62.5 g/ha (LOLMU; use rate 62.5 g ai/ha, 20 DAT): 85% | inhibition at 62.5 g/ha (LOLMU; use rate 62.5 g ai/ha): 85% | pest or weed control at 125 g/ha (LOLMU; use rate 125 g ai/ha, 20 DAT): 95% | inhibition at 125 g/ha (LOLMU; use rate 125 g ai/ha): 95% | pest or weed control at 125 g/ha (PHACA; Phalaris canariensis, 480 h, 125 g ai/ha, read-out: observed % activity 20 DAT): 70% | pest or weed control at 500 g/ha (PHACA; Phalaris canariensis, 480 h, 500 g ai/ha, read-out: observed % activity 20 DAT): 98% | pest or weed control at 15.625 g/ha (PHACA; Phalaris canariensis, 480 h, use rate 15.625 g ai/ha, 20 DAT, read-out: observed % activity 20 DAT): 10% | pest or weed control at 31.25 g/ha (PHACA; Phalaris canariensis, 480 h, use rate 31.25 g ai/ha, 20 DAT, read-out: observed % activity 20 DAT): 55% | inhibition at 31.25 g/ha (PHACA; Phalaris canariensis, 480 h, use rate 31.25 g ai/ha, read-out: observed % activity 20 DAT): 55% | pest or weed control at 62.5 g/ha (PHACA; Phalaris canariensis, 480 h, use rate 62.5 g ai/ha, 20 DAT, read-out: observed % activity 20 DAT): 65% | pest or weed control at 125 g/ha (PHACA; Phalaris canariensis, 480 h, use rate 125 g ai/ha, 20 DAT, read-out: observed % activity 20 DAT): 80% | inhibition at 125 g/ha (PHACA; Phalaris canariensis, 480 h, use rate 125 g ai/ha, read-out: observed % activity 20 DAT): 80% | observed % activity 20 DAT (PHACA; 125 g ai/ha): 70%
